Laboratory results from patent publication US20020045771A1, “Family of canadensol taxanes, the semi-synthetic preparation and therapeutic use thereof” (Institut National de la Recherche Scientifique, priority 1996, published 2002).
Entries after “also recorded” stand apart in the source; their conditions may differ.

Experiments:
[1] = system: A2780 cells; test: MTT cytotoxicity assay; format: cell-based, human; details: for % (absorbance relative to control) / Abs.: 72 h; for Abs.: absorbance at 570 nm (MTT); for IC50: A2780, 72 h continuous treatment, MTT
Procedure: 1—Cell lines and cell culture. The human ovarian adenocarcinoma cell line A2780 was used to evaluate the antiproliferative activity of taxoids. These cells were grown in either RPMI medium supplemented with 10% fetal bovine serum and penicillin-streptomycin antibiotics. Cells were maintained in culture at 37° C. in an atmosphere of 5% CO2.
2—Cytotoxicity assay. Exponentially growing cells (2-3×10^3 cells/[…]) were seeded in 96-well plates and incubated for 16 h. Cells were then treated continuously with the extracts. 72 h later, cell survival was evaluated by replacing the culture media with […] fresh medium containing 10 mM 4-(2-hydroxyethyl)-1 -piperazineethamesulfonic acid buffer, pH 7.4. and […] of 2.5 mg/ml of 3-(4,5-dimethylthiazo-2-yl)-2,5-diphenyltetrazolium bromide (MTT) in PBS, pH 7.4, were then added. After as 3-4 h of incubation at 37° C., the medium and MTT were removed, and […] of DMSO was added to dissolve the precipitate of reduced MTT, followed by addition of […] glycine buffer (0.1M glycine plus 0.1M NaCl, pH 10.5). The formazan crystals were then dissolved and the absorbance was determined at 570 nm with a microplate reader (BIORAD, model 450). The MTT assay distinguished between viable and non-viable cells on the basis for the requirement of physiologically active mitochondria to metabolize the MTT only in viable cells. The IC50 was calculated as the concentration of drug causing a 50% inhibition in the absorbance compared to cells treated with solvent alone, Table I.

[2] = system: tubulin; test: In vitro microtubule assay (tubulin polymerisation, absorbance at 350 nm); format: biochemical, calf; details: for concentration dependence of tubulin polymerisation: 5 μM and 10 μM (FIG. 2); for enhancement of tubulin polymerisation / antimitotic activity: same concentration (10 μM), FIG. 3; for tubulin polymerisation / antimitotic activity compared with paclitaxel: same concentration (FIGS. 1-4)
[3] = system: DA3 mammary adenocarcinoma tumors; test: In vivo study using DA3 cell model (tumour volume); design: species or system mouse
Excerpt: Origin: The DA3 cell line used in this study was derived from a hyperplastic mammary outgrowth (preneoplastic lesion) treated with 7,12-dimethylbenzanthracene (DMBA). DMBA-treated explant was then transplanted into the mammary glands of a female BALB/c mouse, and the resulting tumor was used to establish the DA3 cell line. DA3 is an immunogenic and non-metastatic mammary adenocarcinoma.
Source: The cell line used in our study was originally obtained from Dr. Medina in 1993. Stocks of these cells were generated and stored during early passages in liquid nitrogen. One vial from this early stock was cultured and cells generated were used to confirm the absence of viral and mycoplasma infections. Cells were then propagated and stocks of these cells were established and stored in liquid nitrogen for further studies with Dup compounds.
Cell culture: DA3 cells were maintained in RPMI 1640 medium supplemented with 1M mercaptoethanol, 1M Hepes buffer solution, […] sodium pyruvate, 200 mM L-glutamine, 10 mM non-essential amino acids, 1M vitamins, 10% fetal bovine serum, 1% penicillin-streptomycin. Cells were maintained at 37° C. under 5% CO2.
Animal. […] Mice were maintained at the Lady Davis Institute [LDI] Animal Care Facility.
Tumor cell inoculation and treatments. After one week acclimatisation, mice were randomized into a group of 5 per cage. Cages were randomly assigned to specific experimental groups. The mice were then labeled by numbers using the “ear punching” method. DA3 cells were transplanted subcutaneously to mice, as a suspension of tumor cells [1×10^6 viable cells per 0.1 ml], in the right flank. All animals were inoculated at the same site.
For tumor induction, cells were grown to 70% confluence in complete medium and then collected using trypsin-EDTA solution [0.05% trypsin, 0.53 mM EDTA-4Na in HBSS Ca^++, Mg^++ and NaHCO3 free]. cells were then centrifuged and washed three times with phosphate buffer solution and resuspended at a dilution of 0.1 to 1×10^6 cells/0.1 ml. […]

[4] = Toxicity in DA3 tumor-bearing BALB/c mice (body weight, mortality); details: given twice at 40 mg/kg, iv
Excerpt: Animal. Female BALB/c mice (Charles River Inc.) were used to grow DA3 tumors. Mice were maintained at the Lady Davis Institute [LDI] Animal Care Facility.
Treatment was initiated when tumors become palpable. Drug was given twice (day 1 and day 3) by iv. Control animals were given the same volume of saline solution. The dose of each drug was normalized to mouse body weight.
Tumor measurement. animals were examined every day but the tumor growth was monitored every second or third day using calipers. Parameters measured are: tumor measured along the longest axis (length) and the perpendicular shortest axis (width) and the relative tumor volume (in cm^3) was calculated by the formula: [Length (cm)×(width cm)^2]/2. Tumors which reach the limit size permitted by the Canadian regulation on the use of laboratory animals, or showing any apparent distress or discomfort were immediately sacrificed independently of the experimental protocol [usually 2-3 cm^3 but this depend on animal status and the decision is taken by the animal room personnel]. Animals were subjected, on a daily basis, to general examination.

[5] = listed as semi-synthetic Canadensol

Structure (SMILES) | % (absorbance relative to control) ([1]; 0.2 nM) [%] | Abs. ([1]; 0.2 nM) | % (absorbance relative to control) ([1]; 2 nM) [%] | Abs. ([1]; 2 nM) | % (absorbance relative to control) ([1]; 10 nM) [%] | Abs. ([1]; 10 nM) | % (absorbance relative to control) ([1]; 20 nM) [%] | Abs. ([1]; 20 nM) | % (absorbance relative to control) ([1]; 100 nM) [%] | Abs. ([1]; 100 nM) | % (absorbance relative to control) ([1]; 200 nM) [%] | Abs. ([1]; 200 nM) | IC50 ([1]; Homo sapiens) [nM] | other results
CC(=O)OC1C(=O)[C@]2(C)C(O)CC3OCC3(OC(C)=O)C2C(OC(=O)c2ccccc2)C2(O)CC(OC(=O)C(O)C(NC(=O)C(C)C)c3ccccc3)C(C)=C1C2(C)C (some centres unmarked) [Canadensol] | 100.00 | 1.598 | 94.12 | 1.504 | 77.97 | 1.246 | 50.81 | 0.812 | 1.63 | 0.026 | 1.13 | 0.018 | 21.3 | inhibiting the growth of A2780 (comparison) ([1]; FIGS. 6, 7 and Table I): as active as paclitaxel or taxcultine; concentration dependence of tubulin polymerisation [2]: concentration dependent antimitotic effect; concentration dependence of tubulin polymerisation [2, 5]: dose-dependent response; enhancement of tubulin polymerisation / antimitotic activity [2]: more effective; enhancement of tubulin polymerisation / antimitotic activity [2, 5]: greater enhancement of tubulin polymerisation than semi-synthetic Taxcultine (ssT) or paclitaxel (P); tubulin polymerisation / antimitotic activity compared with paclitaxel [2]: more active than paclitaxel and taxcultine; also recorded: higher antimitotic activity than paclitaxel; tubulin polymerisation / antimitotic activity compared with paclitaxel [2, 5]: higher degree of tubulin polymerisation than Paclitaxel; period in which antitumor effect was significant ([3]; given twice at 40 mg/kg, iv): significant from day 30 to day 40 of tumor growth; antitumor activity ([3]; given twice at 40 mg/kg, iv, FIG. 9): induce antitumor activity; toxic effect [4]: No toxic effect was observed
CC(=O)O[C@H]1C(=O)[C@@]2(C)[C@H]([C@H](OC(=O)c3ccccc3)[C@]3(O)C[C@H](OC(=O)[C@H](O)[C@@H](NC(=O)c4ccccc4)c4ccccc4)C(C)=C1C3(C)C)[C@]1(OC(C)=O)CO[C@@H]1C[C@@H]2O [paclitaxel] | 101.54 | 1.455 | 102.16 | 1.464 | 81.09 | 1.162 | 36.43 | 0.522 | 1.47 | 0.021 | 1.40 | 0.02 | 17 | antitumor activity ([3]; tolerable doses (20-40 mg/Kg), iv day 1 and day 3): no significant antitumor activity
CCCC(=O)N[C@@H](c1ccccc1)[C@@H](O)C(=O)O[C@H]1C[C@@]2(O)[C@@H](OC(=O)c3ccccc3)[C@@H]3[C@]4(OC(C)=O)CO[C@@H]4C[C@H](O)[C@@]3(C)C(=O)[C@H](OC(C)=O)C(=C1C)C2(C)C [taxcultine] | 100.00 | 1.535 | 100.07 | 1.536 | 71.21 | 1.093 | 36.09 | 0.554 | 2.08 | 0.032 | 1.43 | 0.022 |  | IC50 [1]: 16 nM
